According to ChEMBL document CHEMBL1138531, “Pharmacokinetics of penicillin G in infants with a gestational age of less than 32 weeks” (Antimicrob Agents Chemother, 2007):

What was measured:
Format in all cases: ADME, organism-based
[1] = Volume of distribution in neonates; conditions: human, in vivo
[2] = Clearance in iv dosed neonates with gestational age of 27 to 40 weeks; conditions: human, in vivo
[3] = Clearance in preterm neonates with septicemia or invasive infections with gestational age of less than 32 weeks at 50000 U/kg, iv administered every 12 hrs; conditions: human, in vivo
[4] = Volume of distribution in central compartment in preterm neonates with septicemia or invasive infections with gestational age of less than 32 weeks at 50000 U/kg, iv administered every 12 hrs; conditions: human, in vivo, read-out: Vc
[5] = Half life in iv dosed neonates with gestational age of 27 to 40 weeks; conditions: human, in vivo
[6] = Elimination half life in preterm neonates with septicemia or invasive infections with gestational age of less than 32 weeks at 50000 U/kg, iv administered every 12 hrs; conditions: human, in vivo, read-out: beta t1/2 (converted)
Homo sapiens [7] = assay: Apparent peripheral volume of distribution in preterm neonates with septicemia or invasive infections with gestational age of less than 32 weeks at 50000 U/kg, iv administered every 12 hrs; conditions: in vivo
[8] = Volume of distribution in iv dosed neonates with gestational age of 27 to 40 weeks; conditions: human, in vivo
Homo sapiens [9] = assay: Intercompartmental clearance in preterm neonates with septicemia or invasive infections with gestational age of less than 32 weeks at 50000 U/kg, iv administered every 12 hrs; conditions: in vivo
[10] = Volume of distribution at steady state in preterm neonates with septicemia or invasive infections with gestational age of less than 32 weeks at 50000 U/kg, iv administered every 12 hrs; conditions: human, in vivo, read-out: Vdss

Row | SMILES | Vd [1] [L/kg] | clearance [2] [mL/min/kg] | clearance [3] [mL/min] | Vd [4] [L] | half-life [5] [h] | half-life [6] [h] | Vp/F (Homo sapiens [7]) [L] | Vd [8] [L/kg] | CL (Homo sapiens [9]) [L/h] | Vd [10] [L]
1 | CC1(C)S[C@@H]2[C@H](NC(=O)[C@H](N)c3ccc(O)cc3)C(=O)N2[C@H]1C(=O)O [AMOXICILLIN] | 0.41 |  |  |  |  |  |  |  |  | 
2 | CC1(C)S[C@@H]2[C@H](NC(=O)Cc3ccccc3)C(=O)N2[C@H]1C(=O)O [PENICILLIN G] | 0.45 | 2 | 1.72 | 0.359 | 3.8 | 3.9 | 0.152 | 0.61 | 0.774 | 0.54
3 | CC1(C)S[C@@H]2[C@H](NC(=O)[C@H](N)c3ccccc3)C(=O)N2[C@H]1C(=O)O [AMPICILLIN] | 0.3 |  |  |  |  |  |  |  |  | 
